Results from patent USRE37770E1, “Treatment of skin conditions by use of PPARα activators” (The Regents of the University of California, priority 1997, dated 2002).

Assays:
transglutaminase mRNA [1] = assay: Transglutaminase mRNA in keratinocytes by Northern Blot; assay type: cell-based, Human
involucrin protein = assay: Involucrin protein level in keratinocytes by Western Blot; assay type: cell-based, Human
Procedure: Measurements of the level of the involucrin protein itself were performed in the culture medium by Western Blot. Various incubations were performed, in media containing clofibrate at concentrations ranging from 0 (vehicle only) to 400 μM and calcium ion at both 0.03 mM and 1.2 mM. The results are shown in FIG. 9a for tests with calcium ion at 0.03 mM, and in FIG. 9b for tests with calcium ion at 1.2 mM. In these figures, the protein contents are expressed as percents of the respective measurements taken from media incubated for the same period of time but in the absence of clofibrate.
The procedures of Example 8 were followed, and measurements were taken on the involucrin protein levels from cells incubated at various concentrations of farnesol and juvenile hormone III ranging from 0 (vehicle only) to 15 μM, in media containing 0.03 mM and 1.2 mM calcium ion, for 24 hours. The results are shown in FIG. 10 for farnesol and FIG. 11 for juvenile hormone III, in 0.03 mM Ca^++.
Protein concentration was assessed by protein electrophoresis and Western blotting. Cells were lysed is 2% SDS and the lysate sonicated. Protein determinations were made by use of a Bicinchoninic add protein assay (Pierce Chemical Company, Rockford, Ill. USA). Following protein determination, equal amounts at protein (50 μg) were separated by electrophoresis an 7.5% polyacrylamide gels and electroblotted onto polyvinylidene […] membranes (0.2-μ, obtained from Bio-Rad Laboratories Hercules, Calif., USA). Involucrin protein was detected by incubation over-night at 4° C. C. with a polyclonal rabbit anti-human involucrin antibody (1:1000 dilution). The involucrin-specific bands on the autoradiograms were quantitated by densitometry by densitometry. Transglutaminase protein expression was measured in a similar mmaner, using stacking, sample and running buffers containing 4 M urea, and the gels following electrophoresis were washed in 4 M urea, 25 mM TRIS-HCl, pH 7.4, 7.5 mM NaCl, 0.1 mM dithiothreitol (DTT), and 2 mM ethylenediamine tetraacetic acid for 90 minutes prior to electoblotting, allowing the transglutaminase to be detected by antibody. Specific bands on the autoradiograms were quantified by densitometry.

[2] = system: full-thickness flank skin from the fetal rats; assay: Transepidermal water loss (TEWL) of fetal rat skin explants in organ culture (barrier function); assay type: cell-based, Sprague-Dawley rats
Procedure: Timed pregnant Sprague-Dawley rats (plug date=day 0) were obtained from Simonsen (Gilroy, Calif., USA) and fetuses were delivered prematurely on day 17. Transepidermal water loss (TEWL) was measured in excised full-thickness flank skin from the fetal rats after various times in culture. The skin explants were placed dermis-side down onto collagen membrane inserts (3μ pore size) in medium M-199 (serum-free), and submerged, and the lateral edges and dermal surface were sealed with petrolatum, such that water loss occurred only through the epidermal surface. Explant samples were weighed hourly, at ambient temperature (24±3° C.) and humidity (40±5%), over 6 hours using a Cahn balance (sensitivity 0.001 mg). TEWL levels are reported as milligrams of water lost per square millimeter of epidermal surface per hour. Fatty acids and clofibrate (p-chlorophenoxyisobutyric acid) were added to the medium bound to 0.5% (weight/volume) bovine serum albumin (BSA). Isoprenoids and oxysterols were added in ethanol (≦0.1%) and juvenile hormone III was added as a dimethylsulfoxide (DMSO) solution (≦0.1%). Control explants were incubated in the presence of the appropriate vehicle (≦0.1% DMSO or ethanol, and/or ≦0.5% BSA). Skin explants from gestational day 17 rats were incubated in the presence of either various activators or vehicle, and transepidermal water loss was measured after two days. The activators and the concentrations at which they were used were as follows: […]

involucrin mRNA [3] = assay: Involucrin mRNA in keratinocytes by Northern Blot; assay type: cell-based, Human
[4] = system: Normal human keratinocytes; assay: Cornified envelope formation (35S incorporation) in keratinocytes; assay type: cell-based; conditions: 48 hours; for Cornified Envelope Formation (% of Control): control = 0.03 mM Ca++ vehicle, mean ± SEM; for increase in cornified envelope (CE) formation: 10 μM
transglutaminase mRNA [5] = assay: Transglutaminase mRNA in keratinocytes by Northern Blot; assay type: cell-based, Human; remark: listed apart in the source
Procedure: (§1) Human keratinocyte cells were incubated in culture containing calcium at a concentration of 0.03 mM Ca^++ (a level that is too low to induce differentiation). Also included in the culture medium were clofibrate at 400 μM or ETYA at 10 μM and 20 μM, while separate cell cultures were maintained as controls with neither clofibrate nor ETYA. The production of mRNA for both involucrin and transglutaminase was measured at intervals over a 48-hour time period (0, 6, 12, 24, and 48 hours) by Northern Blot analysis. In each case, the lighter bars represent the control cells and the darker bars the cells incubated in the clofibrate-containing medium. The degree of mRNA generated is expressed as a percent of the control at zero hours.
(§2) Human epidermis was isolated from newborn foreskins and keratinocytes were plated in serum-free keratinocyte growth medium (“KGM”; Clonetics, San Diego, Calif. USA), using conventional techniques. Cells were treated with either the test compounds in vehicle or vehicle alone (<0.1% ethanol) for 24 or 48 hours. The test compounds were obtained from Sigma Chemical Co. (St. Louis. Mo. USA) and were stored as 15 mM stock solutions at −20° C. Mevalonate was solubilized in sterile water.
(§3) Total RNA was isolated by using TRIZOL (Sigma Chemical Co.), following the manufacturer's protocol. Ethanol-precipitate RNA pellets were suspended in sterile, diethylpyrocarbonate (DEPC)-treated water, and RNA was quantified by absorbance at 260 nm using the 260/280 nm ratio as an index of purity. RNA (15 μg per sample) was size fractionated through a 1% agarose gel containing 2.2 M formaldehyde. RNA integrity was visualized following acridine orange staining of the gel following electrophoresis. The RNA was transfered to a nylon membrane that was subsequently baked at 80° C. for 2 hours. Blots were hybridized with the appropriate ^32p-labeled probe overnight at 65° C. Washes were then performed in a solution containing 0.1% SSC and 0.1% sodium dedecyl sulfate (SDS) for 20 minutes at room temperature, followed by a 20-minute wash at 65° C. Autoradiography was performed at −70° C. Blots were probed with β-actin to confirm equal loading. Appropriate bands were quantified by densitometry.
(§4) Northern blot analyses were performed on keratinocytes maintained in low calcium (0.03 mM) and incubated for 24 hours in the presence of vehicle alone (<0.1% ethanol) or vehicle containing 25-hydroxycholesterol (10 μM), 22(R)-hydroxycholesterol (10 μM) cholesterol (10 μM), or mevalonate (500 μM) (individually). The mRNA levels of involucrin (“INV”) and transglutaminase (“TG'ase”) are shown in the bar graph of FIG. 14a, the INV indicated by clear bars and the TG'ase by shaded bars, both with error limits shown.

involucrin mRNA [6] = assay: Involucrin mRNA in keratinocytes by Northern Blot; assay type: cell-based, Human; remark: listed apart in the source
Procedure: as §1, §2, §3, §4

[7] = 1.2 mM Ca++, 400 μM, all time points relative to the controls
[8] = 24 hours, 0 to 400 μM, in either 0.03 mM or 1.2 mM Ca++
[9] = 10 μM in the presence of mevalonate (10 μM), 24 hours
[10] = 10 μM alone, 24 hours (Example 17)
[11] = low calcium (0.03 mM), 24 hours, 10 μM

What does the source list for `CCOC(=O)C(C)(C)Oc1ccc(Cl)cc1` [clofibrate, 2-(4-chlorophenoxy)-2-methylpropanoic acid ethyl ester]?
transglutaminase mRNA level (transglutaminase mRNA [1]; [7]): increased mRNA levels; involucrin protein content (involucrin protein; 0 to 400 μM, calcium ion at both 0.03 mM and 1.2 mM): substantial increases in the protein content; EC50 ([2]; Rattus norvegicus, dose response, FIGS. 4a-4c, read-out: concentration of half-maximal effect on barrier development (TEWL)): ~250 µM; concentration of maximal effect on barrier development (TEWL) ([2]; dose response, FIGS. 4a-4c): approximately 500 μM; involucrin mRNA level (involucrin mRNA [3]; [7]): increased mRNA levels; Cornified Envelope Formation (% of Control) ([4]; Calcium 0.03 mM, Clofibrate 50 μM): 121.4% ± 15.7 % of Control; Cornified Envelope Formation (% of Control) ([4]; Calcium 0.03 mM, Clofibrate 200 μM): 321.3% ± 30.4 % of Control; Cornified Envelope Formation (% of Control) ([4]; Calcium 0.03 mM, Clofibrate 400 μM): 386.8% ± 28.7 % of Control; Cornified Envelope Formation (% of Control) ([4]; Calcium 1.2 mM, Clofibrate 50 μM): 458.9% ± 39.8 % of Control; Cornified Envelope Formation (% of Control) ([4]; Calcium 1.2 mM, Clofibrate 200 μM): 529.3% ± 17.4 % of Control; Cornified Envelope Formation (% of Control) ([4]; Calcium 1.2 mM, Clofibrate 400 μM): 581.9% ± 28.7 % of Control; transglutaminase mRNA level (transglutaminase mRNA [5]; 0.03 mM Ca++, 400 μM, 0-48 hours, increase beginning at twelve hours): significantly increased levels; dose dependency of transglutaminase mRNA level (transglutaminase mRNA [5]; [8]): increase with increasing dosages; involucrin mRNA level (involucrin mRNA [6]; 0.03 mM Ca++, 400 μM, 0-48 hours, increase beginning at six hours): significantly increased levels; dose dependency of involucrin mRNA level (involucrin mRNA [6]; [8]): increase with increasing dosages

How did the “TG'ase mRNA level” value (transglutaminase mRNA [1]; [9]) turn out when `C[C@H](CCCC(C)(C)O)[C@H]1CC[C@H]2[C@@H]3CC=C4C[C@@H](O)CC[C@]4(C)[C@H]3CC[C@]12C` [25-hydroxycholesterol] was run?
The value was “two-fold increase”.

And the “increase in INV protein” value (involucrin protein; high calcium (1.2 mM), 15 μM)?
Its value is 3.2 fold.

What about the “INV protein level relative to the control” value (involucrin protein; low calcium (0.03 mM), 24 hours) of the same compound?
Its value is “approximately 1.7 fold”.

And the “effect on TEWL / barrier function” value ([2]; 50 μM, two days)?
Its value is “neither mevalonate at 200 μM, 25-hydroxy cholesterol at 50 μM), squalene at 50 μM, geranylgeraniol at 50 μM, cis-farnesol at 50 μM, nor nerolidol at 100 μM significantly affected barrier function”.

What about the “INV mRNA level” value (involucrin mRNA [3]; [9]) of the same compound?
The value was “two-fold increase”.

What about the “increase in cornified envelope (CE) formation” value ([4]; high calcium (1.2 mM)) of the same compound?
Its value is 1.75 fold.

And the “increase in cornified envelope (CE) formation” value ([4]; low calcium (0.03 mM))?
The value was 1.6 fold.

What about the “TG'ase mRNA level” value (transglutaminase mRNA [5]; [10]) of the same compound?
The value was “two-fold increase”.

What about the “transglutaminase (TG'ase) mRNA level compared to the vehicle alone” value (transglutaminase mRNA [5]; [11]) of the same compound?
Its value is “approximate twofold increase”.

And the “INV mRNA level” value (involucrin mRNA [6]; [10])?
Its value is “two-fold increase”.

And the “involucrin (INV) mRNA level compared to the vehicle alone” value (involucrin mRNA [6]; [11])?
Its value is “approximate twofold increase”.
